The record followed here is ChEMBL document CHEMBL1139012, “Synthesis and biological evaluation of purealin and analogues as cytoplasmic dynein heavy chain inhibitors” (J Med Chem, 2006).

Assay [1] concerns 2008. The assay can be described thus: Antiproliferative activity against human 2008 ovarian carcinoma cells by MTS assay. Format: functional.
The test system of assay [2] is MDA-MB-231. The experiment in a line: Antiproliferative activity against human MDA-MB-231 breast carcinoma cells by MTS assay. Format: functional. For orientation: Tetrazolium dyes change colour on reduction, which living cells bring about.
The subject of assay [3] is HT-29. The experiment in a line: Antiproliferative activity against human HT29 colon carcinoma cells by MTS assay. Format: functional.
The test system of assay [4] is PC-3. The assay can be described thus: Antiproliferative activity against human PC3 prostate carcinoma cells by MTS assay. Type of assay: functional.
Assay [5] deals with L1210. The assay can be described thus: Antiproliferative activity against mouse L1210 leukemia cell line by MTS assay. Format: functional.
Assay [6] addresses Cytoplasmic dynein 1 heavy chain 1 (Rattus norvegicus, UniProt P38650). The experiment in a line: Inhibition of MT-stimulated ATPase activity of rat cytoplasmic dynein heavy chain motor domain.

Cytoplasmic dynein 1 heavy chain 1, sequence (P38650 whole entry, the tested form may be a part): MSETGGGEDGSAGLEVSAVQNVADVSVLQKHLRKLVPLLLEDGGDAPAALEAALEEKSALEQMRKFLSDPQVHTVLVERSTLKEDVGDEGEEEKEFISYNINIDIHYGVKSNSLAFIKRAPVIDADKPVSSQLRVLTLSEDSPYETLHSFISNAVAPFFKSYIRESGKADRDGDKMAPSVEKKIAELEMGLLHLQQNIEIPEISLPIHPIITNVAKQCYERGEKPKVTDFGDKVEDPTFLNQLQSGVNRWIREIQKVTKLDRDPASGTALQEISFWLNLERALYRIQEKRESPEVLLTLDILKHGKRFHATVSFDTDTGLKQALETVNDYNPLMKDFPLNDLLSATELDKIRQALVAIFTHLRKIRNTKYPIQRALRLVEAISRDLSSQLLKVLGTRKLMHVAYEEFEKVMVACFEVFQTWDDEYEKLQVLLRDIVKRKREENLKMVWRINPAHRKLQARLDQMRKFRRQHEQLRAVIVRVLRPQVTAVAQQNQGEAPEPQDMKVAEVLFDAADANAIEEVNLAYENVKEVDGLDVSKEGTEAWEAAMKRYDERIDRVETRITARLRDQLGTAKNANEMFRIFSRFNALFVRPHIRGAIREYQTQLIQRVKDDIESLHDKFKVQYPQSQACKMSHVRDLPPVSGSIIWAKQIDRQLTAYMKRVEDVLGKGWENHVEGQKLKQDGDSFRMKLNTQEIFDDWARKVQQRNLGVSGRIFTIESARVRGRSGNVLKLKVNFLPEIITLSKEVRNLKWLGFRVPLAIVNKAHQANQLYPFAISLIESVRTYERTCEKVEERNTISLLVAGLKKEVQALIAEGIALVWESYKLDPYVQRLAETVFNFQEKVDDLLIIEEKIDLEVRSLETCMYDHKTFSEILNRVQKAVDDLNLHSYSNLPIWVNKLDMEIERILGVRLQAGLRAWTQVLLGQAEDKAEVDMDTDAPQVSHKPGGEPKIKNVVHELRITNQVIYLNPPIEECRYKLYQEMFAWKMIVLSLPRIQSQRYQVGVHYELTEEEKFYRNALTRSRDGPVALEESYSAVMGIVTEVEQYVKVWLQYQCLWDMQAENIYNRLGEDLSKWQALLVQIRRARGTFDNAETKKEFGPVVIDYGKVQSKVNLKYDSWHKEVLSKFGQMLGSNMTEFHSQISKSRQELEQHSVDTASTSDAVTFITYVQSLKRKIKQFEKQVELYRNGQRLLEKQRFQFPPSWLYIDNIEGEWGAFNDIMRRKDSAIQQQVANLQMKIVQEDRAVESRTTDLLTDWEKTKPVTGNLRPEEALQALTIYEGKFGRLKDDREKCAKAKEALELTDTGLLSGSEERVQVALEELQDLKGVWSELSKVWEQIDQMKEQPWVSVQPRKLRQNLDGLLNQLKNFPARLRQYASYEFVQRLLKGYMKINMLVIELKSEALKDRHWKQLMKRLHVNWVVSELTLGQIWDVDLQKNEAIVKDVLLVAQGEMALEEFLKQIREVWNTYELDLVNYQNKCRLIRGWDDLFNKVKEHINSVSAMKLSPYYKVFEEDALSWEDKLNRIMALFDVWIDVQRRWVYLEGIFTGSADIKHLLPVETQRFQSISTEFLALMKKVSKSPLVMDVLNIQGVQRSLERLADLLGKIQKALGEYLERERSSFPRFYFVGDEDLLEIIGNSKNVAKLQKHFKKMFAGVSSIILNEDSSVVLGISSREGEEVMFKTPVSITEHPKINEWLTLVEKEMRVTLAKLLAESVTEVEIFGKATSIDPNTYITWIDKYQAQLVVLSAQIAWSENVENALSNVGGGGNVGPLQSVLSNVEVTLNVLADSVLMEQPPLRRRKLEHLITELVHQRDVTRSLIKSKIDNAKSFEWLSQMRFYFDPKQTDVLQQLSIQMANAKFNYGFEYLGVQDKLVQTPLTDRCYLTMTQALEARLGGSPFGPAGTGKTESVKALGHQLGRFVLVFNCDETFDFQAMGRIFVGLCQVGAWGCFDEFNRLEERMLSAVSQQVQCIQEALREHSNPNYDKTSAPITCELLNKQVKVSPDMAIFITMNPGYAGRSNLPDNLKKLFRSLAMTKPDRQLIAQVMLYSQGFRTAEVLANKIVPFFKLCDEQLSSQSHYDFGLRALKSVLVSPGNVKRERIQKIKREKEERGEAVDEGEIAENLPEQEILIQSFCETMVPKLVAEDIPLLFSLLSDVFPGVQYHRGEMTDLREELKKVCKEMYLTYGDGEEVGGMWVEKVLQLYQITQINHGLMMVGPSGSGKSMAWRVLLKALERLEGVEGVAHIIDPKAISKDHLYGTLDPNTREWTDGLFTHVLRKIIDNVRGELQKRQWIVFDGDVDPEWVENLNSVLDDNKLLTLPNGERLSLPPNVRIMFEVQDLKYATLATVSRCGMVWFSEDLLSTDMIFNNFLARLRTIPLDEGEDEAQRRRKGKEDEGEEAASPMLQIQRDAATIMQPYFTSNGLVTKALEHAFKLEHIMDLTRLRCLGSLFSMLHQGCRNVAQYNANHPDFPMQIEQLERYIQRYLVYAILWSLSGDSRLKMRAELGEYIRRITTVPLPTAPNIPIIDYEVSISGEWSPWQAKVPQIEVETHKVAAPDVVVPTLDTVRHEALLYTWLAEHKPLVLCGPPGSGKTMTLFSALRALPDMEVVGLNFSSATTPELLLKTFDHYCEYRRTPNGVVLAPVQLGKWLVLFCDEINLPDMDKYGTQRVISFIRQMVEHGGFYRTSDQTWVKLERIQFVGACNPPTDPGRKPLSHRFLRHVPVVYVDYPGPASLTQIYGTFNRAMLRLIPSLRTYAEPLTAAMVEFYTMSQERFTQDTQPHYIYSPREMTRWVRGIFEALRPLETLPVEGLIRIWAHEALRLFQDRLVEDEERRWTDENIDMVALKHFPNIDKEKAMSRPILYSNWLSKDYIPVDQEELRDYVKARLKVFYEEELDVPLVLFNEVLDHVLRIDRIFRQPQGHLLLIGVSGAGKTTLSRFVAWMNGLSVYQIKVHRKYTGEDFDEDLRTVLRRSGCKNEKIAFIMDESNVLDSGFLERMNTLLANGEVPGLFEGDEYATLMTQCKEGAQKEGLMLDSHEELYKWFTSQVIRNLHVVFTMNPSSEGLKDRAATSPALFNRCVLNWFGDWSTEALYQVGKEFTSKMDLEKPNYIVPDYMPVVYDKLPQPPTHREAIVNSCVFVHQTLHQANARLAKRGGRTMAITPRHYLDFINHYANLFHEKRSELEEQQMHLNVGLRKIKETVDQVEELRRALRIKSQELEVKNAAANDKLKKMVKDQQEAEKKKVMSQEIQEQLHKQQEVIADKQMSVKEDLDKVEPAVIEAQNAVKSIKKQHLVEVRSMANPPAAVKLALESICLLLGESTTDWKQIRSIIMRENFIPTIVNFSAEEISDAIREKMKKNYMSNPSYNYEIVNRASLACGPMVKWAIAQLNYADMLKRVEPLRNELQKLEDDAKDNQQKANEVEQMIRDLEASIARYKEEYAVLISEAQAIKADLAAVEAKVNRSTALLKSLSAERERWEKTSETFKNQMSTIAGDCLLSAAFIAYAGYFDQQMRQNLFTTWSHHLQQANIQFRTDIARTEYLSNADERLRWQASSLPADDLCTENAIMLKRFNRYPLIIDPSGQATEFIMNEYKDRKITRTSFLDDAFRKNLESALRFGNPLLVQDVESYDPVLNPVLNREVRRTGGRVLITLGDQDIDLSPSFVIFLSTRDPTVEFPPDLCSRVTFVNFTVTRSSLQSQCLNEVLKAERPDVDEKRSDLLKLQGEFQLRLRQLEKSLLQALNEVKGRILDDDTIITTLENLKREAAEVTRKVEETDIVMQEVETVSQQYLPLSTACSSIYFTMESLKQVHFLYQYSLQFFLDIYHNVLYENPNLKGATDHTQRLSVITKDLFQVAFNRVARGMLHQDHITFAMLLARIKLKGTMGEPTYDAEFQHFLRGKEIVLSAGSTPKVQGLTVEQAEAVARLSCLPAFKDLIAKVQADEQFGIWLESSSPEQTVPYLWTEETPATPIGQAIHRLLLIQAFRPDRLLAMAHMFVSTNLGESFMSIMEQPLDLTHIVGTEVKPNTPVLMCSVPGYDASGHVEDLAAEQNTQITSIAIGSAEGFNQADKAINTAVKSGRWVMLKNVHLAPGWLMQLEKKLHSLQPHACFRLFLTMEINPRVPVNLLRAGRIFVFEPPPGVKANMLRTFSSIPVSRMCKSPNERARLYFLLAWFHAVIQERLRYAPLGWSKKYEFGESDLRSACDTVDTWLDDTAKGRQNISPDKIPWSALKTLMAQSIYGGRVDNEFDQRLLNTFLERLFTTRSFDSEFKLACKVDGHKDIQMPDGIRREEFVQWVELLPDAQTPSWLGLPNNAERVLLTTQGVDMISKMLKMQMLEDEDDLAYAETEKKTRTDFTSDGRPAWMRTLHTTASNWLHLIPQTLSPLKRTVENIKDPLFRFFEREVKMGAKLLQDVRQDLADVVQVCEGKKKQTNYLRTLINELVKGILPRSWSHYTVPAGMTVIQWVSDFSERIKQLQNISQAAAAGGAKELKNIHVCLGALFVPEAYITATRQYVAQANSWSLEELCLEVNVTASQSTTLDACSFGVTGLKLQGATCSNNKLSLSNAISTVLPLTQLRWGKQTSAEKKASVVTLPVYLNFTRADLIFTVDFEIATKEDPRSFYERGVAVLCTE

By GI50 is commonly meant the concentration that inhibits growth by half. Read a high GI50 as less potent growth inhibition. As to `CCCCCCCCCCCCCCCC(=O)NCCCOc1c(Br)cc(C/C(=N/O)C(=O)NCCc2c[nH]c(N)n2)cc1Br` [LIPOPUREALIN C], the GI50 in assay [1] came out at 5.7 µM; in assay [2], 7 µM; in assay [3], 20 µM; in assay [4], 32 µM; in assay [5] it was 9.7 µM.

Turning to `NCCCOc1c(Br)cc(C/C(=N/O)C(=O)NCCc2ccc(Cl)cc2)cc1Br`, the GI50 was 29 µM in assay [1]; 27 µM in assay [2]; 31 µM in assay [3]; 30 µM in assay [4]; 7.8 µM in assay [5].

As usually defined, the IC50 is the concentration needed to halve the response being measured. A low value points to inhibition by little substance. As for `NCCCOc1c(Cl)cc(Cl)cc1C/C(=N/O)C(=O)NCCc1c[nH]c2ccccc12`, the GI50 in assay [1] was determined as 5.7 µM; in assay [2], 5.3 µM; in assay [3], 6 µM; in assay [4], 5 µM; in assay [5], 5.8 µM. The IC50 in assay [6] is above 50 µM.

Regarding `NCCCOc1ccc(C/C(=N/O)C(=O)NCCc2ccc(Cl)cc2)cc1Br`, the GI50 is 27 µM in assay [1]; 26 µM in assay [2]; 27 µM in assay [3]; 33 µM in assay [4]; 6.5 µM in assay [5]. In assay [6], this compound gave an IC50 above 50 µM.

For the compound `COc1ccc(CCNC(=O)/C(Cc2cc(Br)c(OCCCN)c(Br)c2)=N\O)cc1`, the GI50 in assay [1] worked out at 24 µM; in assay [2] it was 17 µM; in assay [3], 20 µM; in assay [4], 21 µM; in assay [5], 2.8 µM.

Take `NCCCOc1c(Br)cc(C/C(=N/O)C(=O)NCCc2c[nH]c(N)n2)cc1Br` [PUREALIDIN A]: the GI50 is above 50 µM in assay [1]; above 50 µM in assay [2]; above 50 µM in assay [3]; above 50 µM in assay [4]; 4.7 µM in assay [5]. The IC50 in assay [6] is 42 µM.

Turning to `NCCCOc1c(Br)cc(Br)cc1C/C(=N/O)C(=O)NCCc1ccccc1`, the GI50 in assay [1] turned out to be 19 µM; in assay [2], 5.7 µM; in assay [3], 5.3 µM; in assay [4] it was 19 µM; in assay [5] it was 6.3 µM.

For the compound `COc1ccc(CCNC(=O)/C(Cc2ccc(OCCCN)c(Br)c2)=N\O)cc1`, the GI50 came out at 31 µM in assay [1]; 48 µM in assay [2]; 30 µM in assay [3]; 39 µM in assay [4]; 9.9 µM in assay [5].

With `NCCCOc1c(Br)cc(Br)cc1C/C(=N/O)C(=O)NCCc1ccc(Cl)cc1`, the GI50 was 5.6 µM in assay [1]; 5.6 µM in assay [2]; 5.3 µM in assay [3]; 15 µM in assay [4]; 6.3 µM in assay [5]. This compound registered an IC50 in assay [6] above 50 µM.

`COC1=C(Br)[C@@H](O)[C@]2(C=C1Br)CC(C(=O)NCCCOc1c(Br)cc(C/C(=N/O)C(=O)NCCc3c[nH]c(N)n3)cc1Br)=NO2` [PUREALIN]: the GI50 in assay [1] is above 50 µM; in assay [2] it was above 50 µM; in assay [3], above 50 µM; in assay [4], above 50 µM; in assay [5], 3.2 µM. Moreover, the IC50 in assay [6] was 35 µM.

For `NCCCOc1c(Br)cc(C/C(=N/O)C(=O)NCCc2ccccc2)cc1Br`, the GI50 is 29 µM in assay [1]; 27 µM in assay [2]; 31 µM in assay [3]; 31 µM in assay [4]; 6.4 µM in assay [5].

`CC(C)CCCCCCCCCCCC(=O)NCCCOc1c(Br)cc(C/C(=N/O)C(=O)NCCc2c[nH]c(N)n2)cc1Br` [LIPOPUREALIN B]: the GI50 in assay [1] stood at 29 µM; in assay [2] it was 28 µM; in assay [3], 30 µM; in assay [4], 25 µM; in assay [5] it was 12 µM.

For the compound `COc1ccc(CCNC(=O)/C(Cc2cc(Br)cc(Br)c2OCCCN)=N\O)cc1`, the GI50 worked out at 25 µM in assay [1]; 8.8 µM in assay [2]; 4.9 µM in assay [3]; 35 µM in assay [4]; 6.2 µM in assay [5].

For `NCCCOc1c(Br)cc(C/C(=N/O)C(=O)NCCc2c[nH]c3ccccc23)cc1Br`, the GI50 stood at 27 µM in assay [1]; 24 µM in assay [2]; 26 µM in assay [3]; 26 µM in assay [4]; 5.8 µM in assay [5].

In the case of `NCCCOc1c(Cl)cc(Cl)cc1C/C(=N/O)C(=O)NCCc1ccc(Cl)cc1`, the GI50 in assay [1] is 5.4 µM; in assay [2] it was 5.2 µM; in assay [3] it was 5.5 µM; in assay [4] it was 7.8 µM; in assay [5], 5.9 µM.

Regarding `C=C/C=C\[C@H](C)[C@H](OC(N)=O)[C@@H](C)[C@H](O)[C@@H](C)C/C(C)=C\[C@H](C)[C@@H](O)[C@@H](C)/C=C\[C@@H](O)C[C@@H]1OC(=O)[C@H](C)[C@@H](O)[C@H]1C` [DISERMOLIDE], the GI50 in assay [1] was determined as 0.0027 µM; in assay [2], 0.04 µM; in assay [3] it was 0.028 µM; in assay [4], 0.052 µM; in assay [5], 0.0092 µM.

In the case of `NCCCOc1c(Br)cc(Br)cc1C/C(=N/O)C(=O)NCCc1c[nH]c2ccccc12`, the 50% growth inhibitory concentration (GI50) in assay [1] is 7.5 µM; in assay [2], 6.7 µM; in assay [3], 6 µM; in assay [4], 31 µM; in assay [5], 5.4 µM. The compound further registered a half-maximal inhibitory concentration (IC50) in assay [6] above 50 µM.

With `NCCCOc1ccc(C/C(=N/O)C(=O)NCCc2c[nH]c3ccccc23)cc1Br`, the GI50 in assay [1] was found to be 26 µM; in assay [2], 25 µM; in assay [3], 30 µM; in assay [4] it was 32 µM; in assay [5], 7.6 µM. Besides, in assay [6], the IC50 is above 50 µM.

Regarding `COc1ccc(CCNC(=O)/C(Cc2cc(Cl)cc(Cl)c2OCCCN)=N\O)cc1`, the GI50 in assay [1] amounted to 29 µM; in assay [2] it was 24 µM; in assay [3], 6.2 µM; in assay [4], 32 µM; in assay [5] it was 6.9 µM.

Regarding `NCCCOc1ccc(C/C(=N/O)C(=O)NCCc2ccccc2)cc1Br`, the GI50 in assay [1] is 30 µM; in assay [2], above 50 µM; in assay [3], 27 µM; in assay [4] it was 31 µM; in assay [5], 6.2 µM.

`CCCCCCCCCCCCCC(=O)NCCCOc1c(Br)cc(C/C(=N/O)C(=O)NCCc2c[nH]c(N)n2)cc1Br` [LIPOPUREALIN A]: the GI50 in assay [1] was determined as 28 µM; in assay [2], 28 µM; in assay [3], 29 µM; in assay [4], 30 µM; in assay [5], 9 µM. Besides, in assay [6], the IC50 was above 50 µM.

Take `NCCCOc1c(Cl)cc(Cl)cc1C/C(=N/O)C(=O)NCCc1ccccc1`: the GI50 in assay [1] worked out at 8.8 µM; in assay [2], 7.6 µM; in assay [3], 5.6 µM; in assay [4], 31 µM; in assay [5] it was 7.5 µM.
